# Measurements from patent US20090274698A1, “Combination anti-cancer therapy” (priority 2007, published 2009).
# Experiments:
# pAkt = assay: Western blot of pAkt in a panel of cell lines from various tumor types; type: cell-based, human
# Method: (§1) Cell extracts were prepared by detergent lysis (50 mM Tris-HCl, pH 8.0, 150 mM NaCl, 1% NP-40, 0.5% sodium deoxycholate, 0.1% SDS, containing protease inhibitor (P8340, Sigma, St. Louis, Mo.) and phosphatase inhibitor (P5726, Sigma, St. Louis, Mo.) cocktails. The soluble protein concentration was determined by micro-BSA assay (Pierce, Rockford Ill.). Protein immunodetection was performed by electrophoretic transfer of SDS-PAGE separated proteins to nitrocellulose, incubation with antibody, and chemiluminescent second step detection (PicoWest; Pierce, Rockford, Ill.). The antibodies included: phospho-Akt(473), phospho-Akt(308), and total Akt. All antibodies were obtained from Cell Signaling Technology, Inc. (Danvers, Mass.). For analysis of an agent's effect on the phosphorylation of downstream signaling proteins, cell lines were grown to approximately 70% confluency, at which time the indicated agent was added at the indicated concentration, and cells were incubated at 37° C. for 24 hours. The media was removed, cells were washed two times with PBS, and cells were lysed as previously described.
# tumor cell lines = assay: Anti-proliferative activity across tumor cell lines (statement of the description); type: cell-based
# [1] = test system: pAkt-S473 in ovarian carcinoma cell lines (Ovcar3, SKov3, MDAH 2774, CaOV3); assay: Western blot of phospho-Akt(S473) in ovarian carcinoma cell lines, cisplatin study (FIG. 8); conditions: 10 nM rapamycin, 20 μM Compound A, 30 μM cisplatin, 24 hours
# Method: Band density was determined and relative levels of phospho-Akt(S473) are expressed graphically relative to DMSO-treated control lysate. Four ovarian cell lines were assayed (A) Ovcar3, (B) SKov3, (C) MDAH 2774, (D) CaOV3.
# as §1
# MDA-MB-231 cells = assay: Apoptosis (Caspase 3/7 Glo) in MDA-MB-231 cells; type: cell-based, human; conditions: MDA-MB-231, 24 hours, Caspase 3/7 activity
# Method: Apoptosis was measured 24 hrs after treatment. […] Measurements were made 24 hours after treatments, and apoptosis was evaluated by fold induction in Caspase 3/7 activity.
# [2] = test system: pAkt (Ser 473) in MDA-MB-231 tumor cells; assay: Western blot of pAkt (Ser 473) in MDA-MB-231 tumor cells; conditions: MDA-MB-231, 24 hours
# Method: Cells were treated for 24 hours prior to harvesting lysates. Ctrl=control.
# as §1
# [3] = test system: pAkt (serine 473) in ovarian tumor cells; assay: Western blot of pAkt (serine 473) in ovarian cell lines, gemcitabine study (FIG. 11A); type: cell-based, human; conditions: gemcitabine 1 μM, Compound B 10 μM, rapamycin 10 nM, 24 hours
# Method: as §1
# [4] = test system: pAkt (Ser 473) in Ovcar3 cells; assay: Western blot of pAkt (Ser 473) in Ovcar3 cells (FIG. 9, 10); type: cell-based, human; conditions: Ovcar3, 24 hours; 10 nM rapamycin, 10 μM irinotecan
# Source text: FIG. 9. Compound B inhibits irinotecan-induced Akt phosphorylation and enhances irinotecan-induced apoptosis in ovarian tumor cells. […] Phospho-Akt was detected using an antoibody specific to Serine 473. […] Apoptosis is expressed as the fold increase in induction relative to DMSO-treated cells.
# FIG. 10. Compound B inhibits doxorubicin-induced Akt phosphorylation and enhances doxorubicin-induced apoptosis in ovarian tumor cells. […] Phospho-Akt was detected using an antibody specific to Serine 473. […] Apoptosis is expressed as the fold increase in induction relative to DMSO-treated cells.
compound,measurement,setting,value
CO[C@H]1C[C@@H]2CC[C@@H](C)[C@@](O)(O2)C(=O)C(=O)N2CCCC[C@H]2C(=O)O[C@H]([C@H](C)C[C@@H]2CC[C@@H](O)[C@H](OC)C2)CC(=O)[C@H](C)/C=C(\C)[C@@H](O)[C@@H](OC)C(=O)[C@H](C)C[C@H](C)/C=C/C=C/C=C/1C [Rapamycin],tumor cells tested in which pAKT is induced,pAkt; Table 2,~62%
same,cancer cell lines in which pAkt (S473) is inhibited,pAkt; statement of the description,~20%
same,cell lines in which treatment increases pAkt (S473),pAkt; statement of the description,~65%
same,cell lines in a given tumor type that are insensitive (anti-proliferative activity),tumor cell lines,approximately 50%
N.N.[Cl][Pt][Cl] [cisplatin],"effect on pAkt-S473, single agent",[1],promotes an increase in Akt phosphorylation
COc1cccc2c1C(=O)c1c(O)c3c(c(O)c1C2=O)C[C@@](O)(C(=O)CO)C[C@@H]3O[C@H]1C[C@H](N)[C@H](O)[C@H](C)O1 [doxorubicin],"induction in apoptosis, single agent",MDA-MB-231 cells,no significant induction in apoptosis
same,"effect on pAkt-S473, single agent",[2],promotes an increase in Akt phosphorylation
Nc1ccn([C@@H]2O[C@H](CO)[C@@H](O)C2(F)F)c(=O)n1 [gemcitabine],"effect on Akt phosphorylation (serine 473), single agent",[3],increased Akt phosphorylation on serine 473
CCc1c2c(nc3ccc(OC(=O)N4CCC(N5CCCCC5)CC4)cc13)-c1cc3c(c(=O)n1C2)COC(=O)[C@]3(O)CC [irinotecan],"effect on pAkt levels, single agent",[4],causes an induction in pAkt levels
